Key:
Type in all cases: in vivo, mouse
[1] = tested on: LPS induced sepsis and subsequent AKI; test: Renal function assessment: serum creatinine in LPS induced AKI
Procedure: (§1) Experimental Design for IGF-1 and BTP-2 studies—The animal experiments involved B6 mice between 5-8 weeks of age. Most experiments involved five groups of animals: (1) healthy, (2) LPS untreated (LPS-No Tx), (3) IGF-I in vivo gene therapy one day before LPS injection (LPS+IGF-1), (4) BTP-2 16 mg/kg i.p. at the start of the study and the (5) combined therapy with IGF-I and BTP-2 (LPS-IGF-1+BTP-2). For the survival experiment, a lethal dose of LPS (25 mg/kg) was used and all of the untreated animals died by 72 hours. In the other experiments, a sublethal dose of LPS (20 mg/kg) was used.
(§2) LPS induced sepsis and subsequent AKI—Female C57BL/6 mice received a sublethal or lethal dose of LPS from E. coli (0127: B8 strain, Sigma Aldrich, St. Louis, MO, USA) in a concentration of 20 or 25 mg/kg body weight administrated in sterile PBS by intraperitoneal injection.
(§3) Treatment—In a preventive therapeutic strategy, some of the mice received an intramuscular injection of Lenti-IGF-1 24 hours before LPS injection; whereas, the calcium signaling blocker BTP-2 (16 mg/kg, Cayman Chemical) was administrated 1 hour before LPS injection. Some of the animals received a combination of Lenti-IGF-1 and BTP-2. Control group mice were injected with an equal volume of PBS.
[…] Serum creatinine (CREA) were detected by Creatinine Assay Kit (Cayman Chemicals).

LPS-induced AKI mice = test: Survival test with a lethal dose of LPS (25 mg/kg body weight); conditions: LPS 25 mg/kg i.p.; for overall survival rate: end of the experiment (144 h) (FIG. 1D); for mortality: pretreatment (FIG. 1D)
Procedure: Different components of the treatment regimen were tested, individually and in combination, for their effect on prolonging survival or affecting mortality. A survival test was performed with a lethal dose of LPS (25 mg/kg body weight). As LPS causes AKI, a mouse model was utilized where AKI was induced by parenteral injection of LPS. Animals were treated with IGF-1 and Vitamin C, individually and in combination to evaluate their effect on survival (FIG. 1C). Kaplan Meier survival analysis was conducted between LPS induced systemic-sepsis animals treated with or without IGF-1, Vitamin C or combination therapy measured over the 96 hour-study period. […] No mortality was observed among healthy mice.
Different components of the treatment regimen were tested, individually and in combination, for their effect on prolonging survival or affecting mortality. A survival test was performed with a lethal dose of LPS (25 mg/kg body weight). Animals were treated with all components individually and in combination to evaluate their effect on survival. As LPS causes AKI, a mouse model was utilized where AKI was induced by parenteral injection of LPS. Pretreatment with IGF-1 monotherapy, BTP-2 monotherapy, and IGF-1+BTP-2 combination therapy was evaluated for effect in the mouse model to prevent the animals from succumbing to death due to organ failure in AKI. Mice (7 per groups) were i.p. injected with a lethal dose of LPS (25 mg/kg body weight). A group of mice received an i.p. injection of BTP-2 (16 mg/kg) one hour before LPS injection, and another group of mice received i.m. injection of Lenti-IGF1, 24 hours before LPS injection. A separate group of mice received a combination of IGF-1+BTP-2 as pretreatment. Mice were monitored every 6 hours. […] The mortality of LPS-injected mice that received an IGF-1 (labeled as LPS+IGF-1) pretreatment was 60% within 36 hours, and 88% at the end of the experiment (144 h). Mortality in LPS-injected mice that received BTP-2 (labeled as LPS+BTP-2) pretreatment was 0% within 36 hours, 30% within 48 hours and 72% at 144 hour-time point. However, the mortality in LPS-injected mice that received an IGF-1 and BTP-2 (labeled as LPS+IGF-1+BTP-2) pretreatment was comparatively low, which reached only 15% within 48 hours, and at the end of the 144 hour-time point reached only up to 43% (compared to LPS-No Tx). […] Meanwhile, no mortality was observed among mice treated with PBS, i.e., healthy group.
as §1, §2, §3

lung = test: Lung immunocytochemistry (CD31, α-SMA); conditions: lung sections (FIG. 14A)
Procedure: Acute Lung Injury Induced by LPS—Female C57BL/6 mice received a sublethal or lethal dose of LPS from Escherichia coli (0127: B8 strain, Sigma Aldrich, St. Louis, MO, USA). LPS in sterile PBS was administered intraperitoneally at 20- or 25-mg/kg body weight.
Treatment for Lung Studies-Lenti-IGF-I was administered intramuscularly 24 h before LPS injection. The TRP and ORAI calcium channel blocker BTP-2 (YM-58483 16 mg/kg, Cayman Chemical, Ann Arbor, MI, USA) was given IP 1 h before LPS injection. Some of the animals received a combination of lenti-IGF-I and BTP-2. Mice in control groups were injected with an equal volume of PBS.
Lung Immunocytochemistry—After the mice were sacrificed, one part of the lung was immediately cut, fixed in a 10% neutral-buffered formalin solution, embedded in paraffin, and used for histopathological examination. Ten-micrometer-thick sections were cut, deparaffinized, and hydrated. All lung serial sections were incubated at 4° C. overnight with one of two antibodies: rabbit polyclonal antibody against PECAM (CD31) (Santa Cruz Biotechnology, Dallas, TX, USA) or rabbit polyclonal antibody against α-SMA (Abcam, Cambridge, MA, USA). After washing, biotinylated goat anti-rabbit IgG (1:200, Vector Labs, Burlingame, CA, USA) were applied to the sections for 30 min at room temperature. […]

[2] = at 48 hours after LPS (FIG. 6A)

Cc1nnsc1C(=O)Nc1ccc(-n2nc(C(F)(F)F)cc2C(F)(F)F)cc1 [BTP-2, 3,5-bis(trifluoromethyl)pyrazole derivative]
serum creatinine [1, 2]: normalized | overall survival rate (LPS-induced AKI mice): 28% | mortality (LPS-induced AKI mice; end of the experiment (144 h)): 72% | mortality (LPS-induced AKI mice; within 36 hours): 0% | mortality (LPS-induced AKI mice; within 48 hours): 30% | immunocytochemical evaluation of CD31 (% of the area of CD31 staining) (lung): significantly improved

IGF-I: Insulin-like Growth Factor, delivered by a lentiviral vector engineered to express IGF-I injected into skeletal muscle
serum creatinine ([1]; LPS i.p. day 0, measured 7 days later, IGF-I gene therapy one day prior to LPS (FIG. 1B)): normalized | serum creatinine [1, 2]: improved | overall survival rate (LPS-induced AKI mice): 12.5% | mortality (LPS-induced AKI mice; end of the experiment (144 h)): 88% | mortality (LPS-induced AKI mice; within 36 hours): 60% | immunocytochemical evaluation of CD31 (% of the area of CD31 staining) (lung): significantly improved

— patent US12714721B2, “Methods of treatment of a cytokine storm” (Loma Linda University Health, priority 2020, dated 2026)
